Data reported in BindingDB's records for doi:10.1021/acs.jmedchem.8b00170 (The University of Queensland, 2018).

Molecular target: Melanocortin receptor 5 (Homo sapiens, UniProt P33032)
Test: Displacement of [125I]-NDP-alpha-MSH from human MC5R LBD expressed in HEK293 cell membranes incubated for 16 to 23 hrs in dark by scintillation proximity assay

Chain of Melanocortin receptor 5 (P33032 whole entry, the tested form may be a part): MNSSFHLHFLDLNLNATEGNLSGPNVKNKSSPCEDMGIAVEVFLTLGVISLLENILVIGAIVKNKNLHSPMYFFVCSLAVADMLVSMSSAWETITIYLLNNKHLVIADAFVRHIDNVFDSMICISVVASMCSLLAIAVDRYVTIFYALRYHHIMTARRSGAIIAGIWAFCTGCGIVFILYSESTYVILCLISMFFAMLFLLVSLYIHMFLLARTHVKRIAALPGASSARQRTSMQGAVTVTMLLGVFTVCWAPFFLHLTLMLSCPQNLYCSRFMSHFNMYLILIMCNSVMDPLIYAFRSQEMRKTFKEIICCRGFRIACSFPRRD

Compound CC[C@H](C)[C@@H]1NC(=O)[C@@H]2CCCN2C(=O)[C@@H]2CCCN2C(=O)[C@H]([C@@H](C)CC)NC(=O)[C@H](CO)NC(=O)[C@H](C)NC(=O)[C@H]([C@@H](C)O)NC(=O)[C@@H]2CSSC[C@H](NC1=O)C(=O)N[C@@H](Cc1c[nH]cn1)C(=O)N[C@H](Cc1ccccc1)C(=O)N(C)[C@@H](CCCNC(=N)N)C(=O)N(C)[C@@H](Cc1c[nH]c3ccccc13)C(=O)N[C@@H](CCCNC(=N)N)C(=O)N2 has an IC50 of 813 nM.
